Measurements as given in patent US20060148744A1, “Use of cis-epoxyeicosantrienoic acids and inhibitors of soluble epoxide hydrolase to reduce damage from stroke” (priority 2004, published 2006).

Tests used:
Metabolic stability = assay type: in vitro ADME; conditions: result in words
sEH = target: T1, sEH (Homo sapiens, UniProt P34913); experiment: Inhibition of sEH; assay type: biochemical; conditions: result in words
T1 sequence (P34913 1-555): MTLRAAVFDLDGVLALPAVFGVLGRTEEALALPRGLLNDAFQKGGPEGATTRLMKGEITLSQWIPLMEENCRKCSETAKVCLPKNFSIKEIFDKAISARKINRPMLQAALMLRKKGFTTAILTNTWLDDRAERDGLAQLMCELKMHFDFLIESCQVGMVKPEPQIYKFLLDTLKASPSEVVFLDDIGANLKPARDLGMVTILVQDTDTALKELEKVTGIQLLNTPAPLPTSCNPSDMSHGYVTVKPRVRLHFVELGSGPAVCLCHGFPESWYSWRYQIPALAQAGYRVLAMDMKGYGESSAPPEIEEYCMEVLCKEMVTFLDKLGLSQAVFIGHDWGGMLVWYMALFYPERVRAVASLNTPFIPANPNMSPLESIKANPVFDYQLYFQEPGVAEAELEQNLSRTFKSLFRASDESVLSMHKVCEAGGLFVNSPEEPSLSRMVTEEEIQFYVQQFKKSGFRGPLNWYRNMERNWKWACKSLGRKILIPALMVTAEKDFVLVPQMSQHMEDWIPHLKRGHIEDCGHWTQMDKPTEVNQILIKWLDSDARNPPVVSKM
Source text: Any of a number of standard assays for determining epoxide hydrolase activity can be used to determine inhibition of sEH. For example, suitable assays are described in Gill, et al., Anal Biochem 131, 273-282 (1983); and Borhan, et al., Analytical Biochemistry 231, 188-200 (1995)). Suitable in vitro assays are described in Zeldin et al., J Biol. Chem. 268:6402-6407 (1993). Suitable in vivo assays are described in Zeldin et al., Arch Biochem Biophys 330:87-96 (1996). […]
The enzyme also can be detected based on the binding of specific ligands to the catalytic site which either immobilize the enzyme or label it with a probe such as dansyl, fluoracein, luciferase, green fluorescent protein or other reagent. […] The enzyme also can be detected based on the generation of fluorescent products following the hydrolysis of the epoxide. […]

[1] = rat, in vivo, po
Description: The sEH inhibitor, adamantyl dodecanoic acid (AUDA) was administered orally to six-week-old male stroke prone spontaneously hypertensive rats (“SPSHR”).

[2] = Systolic blood pressure in treated SPSHR; assay type: in vivo, rat; conditions: SPSHR treated with AUDA
Source text: This difference in infarct size occurred independently of changes in systolic blood pressure (193±2 vs. 197±6 mm Hg, AUDA vs. vehicle).

[3] = test system: stroke prone spontaneously hypertensive rats; experiment: Cerebral ischemia by middle cerebral artery occlusion (intralumenal suture), infarct size by TTC staining; assay type: in vivo, rat; conditions: SPSHR, six weeks oral treatment, six hours post MCA occlusion, n=6, p<0.01 vs. vehicle
Description: After six weeks of treatment, cerebral ischemia was induced by middle cerebral artery occlusion using the intralumenal suture occlusion technique. Rats were anesthetized with sodium pentobarbital (50 mg/kg IP) and body temperature was maintained at 37° C. using a microprocessor-controlled heating pad and a rectal temperature probe. The skin over the skull was retracted and the bone was thinned using a low speed drill. A laser Doppler flow probe (Perimed) was glued to the skull 2 mm posterior and 6 mm lateral to the bregma to allow for confirmation of middle cerebral artery (“MCA”) occlusion. The MCA was then occluded using the thread occlusion model as described by Zea Longa et al. “Reversible middle cerebral artery occlusion without craniotomy in rats”, Stroke 20:84-91 (1989). The common carotid artery was exposed by a midline incision and the pterygopalatine artery was ligated and the branches of the external carotid artery were cauterized. A 3-0 monofilament thread with a rounded tip was introduced into the external carotid artery in a retrograde fashion. […] Digital images of the brain slices were produced and the infarct volume was analyzed using a computerized image analysis system (NIH image, version 1.55). The percent of the hemisphere infarcted was measured using the Swanson equation to account for cerebral edema. […]

Row | Plasma levels of AUDA at the end of the treatment period [1] [ng/mL] | urinary AUDA excretion rate [1] [ng/day] | Compound | metabolic stability (Metabolic stability) | activity as an inhibitor of sEH (sEH) | systolic blood pressure [2] [mm Hg] | % hemisphere infarcted [3] [% hemisphere infarcted]
1 |  |  | CCCCCCCCCCCCNC(=O)NC12CC3CC(CC(C3)C1)C2 [ADU, N-Adamantyl-N′-dodecyl urea] | metabolically stable | particularly high activity on sEH |  | 
2 | 5.03 ± 0.32 | 111.6 ± 24.4 | adamantyl dodecanoic acid [AUDA] |  |  | 193±2 | 35.9±3.83
